Data on 3 compounds can be found in patent publication EP1584686A1, “Progenitor cell preservation factors and related methods and products” (ImClone Systems Incorporated, priority 1999, dated 2001).

Where only a bound is given, the exact number is not on record here.

In one data set the target is T1, Dl-FRIL (Lablab purpureus, UniProt Q9ZTA9).
T1 sequence (Q9ZTA9 9-272): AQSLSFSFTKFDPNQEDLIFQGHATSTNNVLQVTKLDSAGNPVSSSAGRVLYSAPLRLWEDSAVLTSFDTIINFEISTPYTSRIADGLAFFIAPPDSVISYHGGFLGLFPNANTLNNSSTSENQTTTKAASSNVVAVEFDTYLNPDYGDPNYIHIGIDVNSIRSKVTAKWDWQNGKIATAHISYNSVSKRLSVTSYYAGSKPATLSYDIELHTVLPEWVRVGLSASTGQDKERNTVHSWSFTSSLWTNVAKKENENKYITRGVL
The conditions noted are these: Mo et al., Glycobiology 9:173-179,1999; cited from earlier work.

For a further data set, the system named is mice. The conditions noted are these: single dose 150 mg/kg; Lerner and Harrison 1990; cited from earlier work.
The target of data set [1] is FLT3 receptor on FLT3-transfected 3T3 cells (chimeric murine FLT3/human Fms receptor or full length human receptor, not told apart). Nature of the data set: cell-based or functional assay.

On to `OC[C@H]1O[C@H](O[C@H]2O[C@H](CO)[C@@H](O)[C@H](O)[C@H]2O)[C@H](O)[C@@H](O)[C@@H]1O` [α,α-trehalose], for which the “potency greater than mannose” value at Dl-FRIL is 3.6 fold.
As to `O=c1[nH]cc(F)c(=O)[nH]1` [5-FU, 5-fluorouracil], the “reduction of bone marrow cellularity” value in the data set on mice is on record as above 90%.
“Pv-FRIL (Phaseolus vulgaris FRIL), native, purified from PHA-LCM or from red kidney bean extract”: the Specific Activity (u/mg) in the Flt3 3T3 assay, after the Superdex 75 step in data set [1] stood at 244000 units/mg.
